Where a SMILES comes first, the peptide text is derived from it. Bridges are numbered along the chain shown (N, C = ends). [ ]: non-standard residue; d: D form. The star is where a group is joined. DOTA = O=C(O)CN1CCN(CC(=O)O)CCN(CC(=O)*)CCN(CC(=O)O)CC1; 2Nal = N[C@@H](Cc1ccc2ccccc2c1)C(=O)O; Cit = NC(=O)NCCC[C@H](N)C(=O)O
Target: T1, CXCR4 (Homo sapiens, UniProt P61073)
T1 construct: expressed in transfected cells; host or cells: U87-MG (U87-CXCR4+), kept under blasticidin selection
Test: Saturation binding assay on U87-CXCR4 + cells
Conditions: 0.1–1000 nM, 4 h, 37 °C; NSB with 100 µM AMD11070; N = 2
Description: In the saturation binding assays, U87-CXCR4 + cells were seeded in 24-well plates and allowed to adhere. The night before the experiment, complete media was replaced with media containing 2% FBS. To determine the total binding, cells were treated with a mixture of each radiolabelled peptide (at final concentrations ranging from 0.1 to 1000 nM, corresponding to activity concentrations ranging from 0.005 to 50 MBq/mL) with 0.2% dimethyl sulfoxide (DMSO, vehicle). Non-specific binding (NSB) was verified by treating cells with a mixture of each radiolabelled peptide with 100 µM of AMD11070, a potent CXCR4 antagonist.
After 4 h of incubation at 37 °C and 5% CO2, the unbound fraction was collected in gamma counter tubes, and the cells were washed twice with PBS. The wash fractions were added to the same gamma counter tubes. Next, cells were lysed by incubation with 1 M NaOH for 30 min at room temperature (RT). After collecting the lysed cell fractions, two washes with 1 M NaOH were performed, and added to the same fractions, corresponding to the total bound fractions.
The activities of all collected fractions were measured in an automated gamma counter. […]
Statistical analyses and data plotting were done using GraphPad Prism 10. […] Statistical significance was evaluated with one-way ANOVA followed by post-hoc comparisons with the untreated cells using Dunnett’s test. […]

T1 sequence (P61073 whole entry): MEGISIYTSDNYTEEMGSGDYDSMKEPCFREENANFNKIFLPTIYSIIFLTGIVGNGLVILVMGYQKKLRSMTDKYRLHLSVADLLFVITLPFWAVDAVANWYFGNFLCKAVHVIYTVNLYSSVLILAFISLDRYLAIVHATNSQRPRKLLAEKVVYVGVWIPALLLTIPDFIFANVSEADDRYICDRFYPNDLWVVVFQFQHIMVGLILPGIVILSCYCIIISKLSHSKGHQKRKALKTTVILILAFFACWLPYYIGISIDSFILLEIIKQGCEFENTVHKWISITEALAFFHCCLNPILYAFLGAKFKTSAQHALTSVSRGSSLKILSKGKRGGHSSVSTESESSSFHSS

In the case of N=C(N)NCCC[C@@H]1NC(=O)[C@@H]2CSSC[C@H](NC(=O)[C@H](Cc3ccc4ccccc4c3)NC(=O)[C@H](CCCNC(=N)N)NC(=O)[C@H](CCCNC(=N)N)NC(=O)[C@H]3CCCN3C(=O)CNC1=O)C(=O)N[C@@H](Cc1ccc(O)cc1)C(=O)N[C@@H](CCC(N)=O)C(=O)N[C@@H](CCCCNC(=O)CN1CCN(CC(=O)O)CCN(CC(=O)O)CCN(CC(=O)O)CC1)C(=O)N1CCC[C@@H]1C(=O)N1CCC[C@H]1C(=O)N[C@@H](Cc1ccc(O)cc1)C(=O)N[C@@H](CCCNC(=N)N)C(=O)N[C@@H](CCCNC(N)=O)C(=O)N2 [[^177Lu]Lu-DOTA-POL3026, metal not drawn] (cyclo(RR[2Nal]CYQK(DOTA)[dP]PYR[Cit]CRG[dP]); disulfide 4-13), the Kd is reported as 21.8 nM.

From publication PMC11250742, “Preclinical evaluation of CXCR4 peptides for targeted radionuclide therapy in glioblastoma” (EJNMMI Radiopharmacy and Chemistry, 2024)
